Measured values as given in ChEMBL document CHEMBL1201862, “PubChem BioAssay data set” (2004).
The source made the active and inactive calls.

What was measured:
[1] = target: Peroxisome proliferator-activated receptor gamma/Nuclear receptor coactivator 3 (Homo sapiens, UniProt P37231); type: functional;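 also: agonist potency for raising coactivator recruitment to the receptor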
[2] = target: Peroxisome proliferator-activated receptor gamma/Nuclear receptor coactivator 1 (Homo sapiens, UniProt P37231); type: functional;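 also: agonist potency as compounds enhance coactivator SRC-1 recruitment to PPARgamma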
[3] = target: Peroxisome proliferator-activated receptor gamma/Nuclear receptor coactivator 2 (Homo sapiens, UniProt P37231); type: functional;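 also: agonist potency for raising coactivator recruitment to the receptor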
[4] = target: T1, Aminopeptidase N (Plasmodium falciparum FcB1/Columbia, UniProt O96935); test: malaria alanyl aminopeptidase activity blockers – biochemical, fluorogenic H-Leu-NHMec substrate, 1536-well (AID 1445); design: species or system Plasmodium falciparum 3D7, 3D7
T1 sequence (O96935 whole entry): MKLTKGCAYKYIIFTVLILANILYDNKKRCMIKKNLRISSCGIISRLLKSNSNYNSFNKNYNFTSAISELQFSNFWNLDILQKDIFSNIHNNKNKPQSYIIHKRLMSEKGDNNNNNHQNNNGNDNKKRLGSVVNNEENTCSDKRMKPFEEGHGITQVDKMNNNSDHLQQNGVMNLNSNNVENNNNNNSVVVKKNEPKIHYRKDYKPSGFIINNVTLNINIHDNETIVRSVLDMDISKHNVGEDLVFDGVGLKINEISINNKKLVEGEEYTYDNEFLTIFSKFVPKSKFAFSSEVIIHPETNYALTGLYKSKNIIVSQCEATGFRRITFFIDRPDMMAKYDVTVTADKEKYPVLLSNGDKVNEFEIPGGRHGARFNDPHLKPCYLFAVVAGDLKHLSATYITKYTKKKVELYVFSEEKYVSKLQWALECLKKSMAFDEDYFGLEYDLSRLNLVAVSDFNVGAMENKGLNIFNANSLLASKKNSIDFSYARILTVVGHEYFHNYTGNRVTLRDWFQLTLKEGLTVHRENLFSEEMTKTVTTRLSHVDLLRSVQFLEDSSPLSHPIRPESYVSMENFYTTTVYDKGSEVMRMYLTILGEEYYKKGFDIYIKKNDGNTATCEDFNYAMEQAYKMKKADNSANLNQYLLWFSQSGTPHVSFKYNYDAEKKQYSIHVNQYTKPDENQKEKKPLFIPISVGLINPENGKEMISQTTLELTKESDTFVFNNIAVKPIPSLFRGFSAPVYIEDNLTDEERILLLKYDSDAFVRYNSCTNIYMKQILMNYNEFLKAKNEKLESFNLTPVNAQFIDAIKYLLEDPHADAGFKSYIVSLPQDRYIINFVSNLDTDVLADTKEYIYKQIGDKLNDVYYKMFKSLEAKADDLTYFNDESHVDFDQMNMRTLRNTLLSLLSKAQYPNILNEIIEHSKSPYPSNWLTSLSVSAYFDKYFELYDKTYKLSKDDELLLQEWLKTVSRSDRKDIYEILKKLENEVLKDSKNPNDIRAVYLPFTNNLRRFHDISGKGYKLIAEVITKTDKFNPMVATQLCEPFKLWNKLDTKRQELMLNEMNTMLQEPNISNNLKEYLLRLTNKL

[5] = target: T2, Leucine aminopeptidase (Plasmodium falciparum 3D7, UniProt Q8IL11); test: P. falciparum M17LAP inhibitors, primary screen, biochemical, fluorogenic H-Leu-NHMec substrate, 1536-well (AID 1619); type: functional
T2 sequence (Q8IL11 whole entry): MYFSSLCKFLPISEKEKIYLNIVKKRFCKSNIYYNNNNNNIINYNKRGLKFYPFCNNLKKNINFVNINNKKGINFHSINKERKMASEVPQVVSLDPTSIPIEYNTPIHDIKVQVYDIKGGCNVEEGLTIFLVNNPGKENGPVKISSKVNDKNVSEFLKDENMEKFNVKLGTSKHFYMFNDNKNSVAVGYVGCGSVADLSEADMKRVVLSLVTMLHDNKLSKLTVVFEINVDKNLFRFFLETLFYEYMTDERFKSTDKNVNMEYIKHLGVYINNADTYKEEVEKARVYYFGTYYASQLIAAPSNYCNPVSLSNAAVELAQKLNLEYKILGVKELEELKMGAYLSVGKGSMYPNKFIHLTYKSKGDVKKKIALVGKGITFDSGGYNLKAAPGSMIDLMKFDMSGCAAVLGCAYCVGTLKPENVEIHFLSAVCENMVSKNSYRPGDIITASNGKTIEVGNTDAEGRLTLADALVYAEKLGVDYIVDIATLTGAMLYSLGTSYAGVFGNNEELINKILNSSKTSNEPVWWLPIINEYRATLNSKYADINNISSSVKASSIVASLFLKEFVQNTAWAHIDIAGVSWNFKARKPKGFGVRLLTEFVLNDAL

[6] = HEK-293T viability loss after treatment – luminescence, T-cell screen hits, cytotoxicity control for TCR NF-kB inhibitor project, dose response (AID 489026); type: functional, cell-based;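 also: cells exposed to compound about 14 hours before the viability readout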
[7] = target: T3, Short transient receptor potential channel 4 (Mus musculus, UniProt Q9QUQ5); test: calcium entry via TRPC4 opening agents – cell-based, HEK293 TRPC4/mu-opioid, Fluo-4 calcium, dose response (AID 434937); type: functional
T3 sequence (Q9QUQ5 whole entry): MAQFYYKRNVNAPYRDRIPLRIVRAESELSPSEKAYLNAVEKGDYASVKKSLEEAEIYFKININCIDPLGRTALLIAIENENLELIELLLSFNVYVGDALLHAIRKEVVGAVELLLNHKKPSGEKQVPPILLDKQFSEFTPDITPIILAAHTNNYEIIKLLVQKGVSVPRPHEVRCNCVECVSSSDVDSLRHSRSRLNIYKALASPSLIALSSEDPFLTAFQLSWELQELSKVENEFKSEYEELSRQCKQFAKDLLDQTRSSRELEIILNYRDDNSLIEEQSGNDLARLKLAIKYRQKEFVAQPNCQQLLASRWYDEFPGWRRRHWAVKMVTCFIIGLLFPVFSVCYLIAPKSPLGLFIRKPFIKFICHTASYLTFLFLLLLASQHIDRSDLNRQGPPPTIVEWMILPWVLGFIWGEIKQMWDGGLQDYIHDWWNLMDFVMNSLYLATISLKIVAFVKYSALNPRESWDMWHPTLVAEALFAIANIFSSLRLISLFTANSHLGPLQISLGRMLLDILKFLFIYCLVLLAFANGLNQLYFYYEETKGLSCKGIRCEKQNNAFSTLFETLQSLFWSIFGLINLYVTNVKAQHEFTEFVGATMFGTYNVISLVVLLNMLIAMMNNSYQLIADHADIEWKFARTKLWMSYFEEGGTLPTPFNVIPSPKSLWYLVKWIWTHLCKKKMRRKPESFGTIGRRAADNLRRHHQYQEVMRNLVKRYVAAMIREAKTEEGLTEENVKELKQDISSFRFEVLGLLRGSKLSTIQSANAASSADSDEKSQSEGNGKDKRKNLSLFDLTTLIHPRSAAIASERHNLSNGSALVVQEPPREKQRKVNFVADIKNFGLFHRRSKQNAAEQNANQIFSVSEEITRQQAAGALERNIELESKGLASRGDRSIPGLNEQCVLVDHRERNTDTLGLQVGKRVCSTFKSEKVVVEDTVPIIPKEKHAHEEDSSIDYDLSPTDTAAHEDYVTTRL

[8] = target: T4, Streptokinase A (Streptococcus pyogenes serotype M1, UniProt P10520); test: viability-normalized secreted streptokinase activity reduction – plasminogen activation absorbance, OD405, dose response (AID 1914); type: functional, Streptococcus pyogenes M1 GAS;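 also: secreted streptokinase activity via plasminogen activation per viability signal from cell pellet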
T4 sequence (P10520 whole entry): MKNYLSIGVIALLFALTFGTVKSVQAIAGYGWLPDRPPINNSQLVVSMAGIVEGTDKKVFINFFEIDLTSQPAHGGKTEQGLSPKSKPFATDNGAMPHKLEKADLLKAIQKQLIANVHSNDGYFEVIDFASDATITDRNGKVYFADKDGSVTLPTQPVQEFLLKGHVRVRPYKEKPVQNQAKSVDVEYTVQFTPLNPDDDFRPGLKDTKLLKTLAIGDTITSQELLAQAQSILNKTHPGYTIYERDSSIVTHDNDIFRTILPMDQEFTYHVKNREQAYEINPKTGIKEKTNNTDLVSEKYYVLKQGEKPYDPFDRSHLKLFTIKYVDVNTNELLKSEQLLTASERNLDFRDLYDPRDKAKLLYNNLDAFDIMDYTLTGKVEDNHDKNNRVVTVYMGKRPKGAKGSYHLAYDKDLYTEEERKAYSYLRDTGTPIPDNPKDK

[9] = system: Vero; test: cells; type: functional; settings: Chlorocebus sabaeus
[10] = system: Streptococcus sp. 'group A'; test: Streptococcus pyogenes SK(-)GAS viability under kanamycin – luminescence, BacTiterGlo, confirmation, counter-screen for streptokinase expression inhibitor project, dose response (AID 1900); type: functional, organism-based
[11] = system: Streptococcus; test: GAS UMAA2166 growth inhibition – luminescence, BacTiterGlo, counter-screen for streptokinase expression inhibitor project, dose response (AID 1915); type: functional, organism-based;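 also: potency for reduction of bacterial viability or growth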
[12] = cells; type: functional
[13] = system: H4; test: Luminescence Cell-Based Dose Response HTS to Identify Activators of 5'UTR Stem-Loop Driven Prion Protein mRNA Translation in H4 Neuroglioblastoma Cells. [Related pubchem assays: 1829 (Project Summary), 1814 (Primary HTS)]; type: functional; settings: Homo sapiens
[14] = Luminescence Cell-Based Dose Confirmation HTS to Identify Activators of 5'UTR Stem-Loop Driven Alpha-Synuclein mRNA Translation in H4 Neuroglioblastoma Cells. [Related pubchem assays: 1829 (Project Summary), 1814 (Primary HTS)]; type: functional
[15] = Luminescence Cell-Based Dose Response HTS to Identify Activators of Luciferase Translation or Activity in H4 […] Cells. [Related pubchem assays: 1829 (Project Summary), 1814 (Primary HTS)]; type: functional
[16] = Vero E6 cell cytotoxicity, dose response, cytotoxicity control for non-replicating M. tuberculosis project, secondary assay (AID 492998); type: functional, VeroE6; settings: Vero C1008
[17] = THP-1 cell cytotoxicity, dose response, cytotoxicity control for non-replicating M. tuberculosis project (AID 489025); type: functional
[18] = target: Beta-galactosidase (Escherichia coli, UniProt Q8VNN2); test: detection-enzyme interference by beta-gal modulators – biochemical, E. coli enzyme, set 3, artefact control for CCR6 antagonist project, dose response (AID 504712); type: functional
[19] = A cytotoxicity screen of small molecule inhibitors of the PhoP region in Salmonella typhi identified in the primary screen. [Related pubchem assays: 1850, 1864, 1985 ]; type: functional
[20] = target: Induced myeloid leukemia cell differentiation protein Mcl-1 (Homo sapiens, UniProt Q07820); type: functional

Sequence of Peroxisome proliferator-activated receptor gamma/Nuclear receptor coactivator 1 (P37231 whole entry): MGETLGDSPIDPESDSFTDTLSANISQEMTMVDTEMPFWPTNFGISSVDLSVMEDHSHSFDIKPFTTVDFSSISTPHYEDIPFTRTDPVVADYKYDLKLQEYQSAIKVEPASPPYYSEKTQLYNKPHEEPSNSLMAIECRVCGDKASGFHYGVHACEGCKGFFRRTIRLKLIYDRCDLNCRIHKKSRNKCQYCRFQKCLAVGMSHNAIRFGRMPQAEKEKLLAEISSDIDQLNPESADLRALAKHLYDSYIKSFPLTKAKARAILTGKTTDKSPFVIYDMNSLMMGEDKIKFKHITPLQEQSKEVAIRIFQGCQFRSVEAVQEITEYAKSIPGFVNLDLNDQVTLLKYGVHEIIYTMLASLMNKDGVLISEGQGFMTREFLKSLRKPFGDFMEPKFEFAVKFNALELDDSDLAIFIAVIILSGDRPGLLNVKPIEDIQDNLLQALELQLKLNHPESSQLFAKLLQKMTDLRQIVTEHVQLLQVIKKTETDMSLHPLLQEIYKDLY
Sequence of Peroxisome proliferator-activated receptor gamma/Nuclear receptor coactivator 1 (Q15788 whole entry, further chain): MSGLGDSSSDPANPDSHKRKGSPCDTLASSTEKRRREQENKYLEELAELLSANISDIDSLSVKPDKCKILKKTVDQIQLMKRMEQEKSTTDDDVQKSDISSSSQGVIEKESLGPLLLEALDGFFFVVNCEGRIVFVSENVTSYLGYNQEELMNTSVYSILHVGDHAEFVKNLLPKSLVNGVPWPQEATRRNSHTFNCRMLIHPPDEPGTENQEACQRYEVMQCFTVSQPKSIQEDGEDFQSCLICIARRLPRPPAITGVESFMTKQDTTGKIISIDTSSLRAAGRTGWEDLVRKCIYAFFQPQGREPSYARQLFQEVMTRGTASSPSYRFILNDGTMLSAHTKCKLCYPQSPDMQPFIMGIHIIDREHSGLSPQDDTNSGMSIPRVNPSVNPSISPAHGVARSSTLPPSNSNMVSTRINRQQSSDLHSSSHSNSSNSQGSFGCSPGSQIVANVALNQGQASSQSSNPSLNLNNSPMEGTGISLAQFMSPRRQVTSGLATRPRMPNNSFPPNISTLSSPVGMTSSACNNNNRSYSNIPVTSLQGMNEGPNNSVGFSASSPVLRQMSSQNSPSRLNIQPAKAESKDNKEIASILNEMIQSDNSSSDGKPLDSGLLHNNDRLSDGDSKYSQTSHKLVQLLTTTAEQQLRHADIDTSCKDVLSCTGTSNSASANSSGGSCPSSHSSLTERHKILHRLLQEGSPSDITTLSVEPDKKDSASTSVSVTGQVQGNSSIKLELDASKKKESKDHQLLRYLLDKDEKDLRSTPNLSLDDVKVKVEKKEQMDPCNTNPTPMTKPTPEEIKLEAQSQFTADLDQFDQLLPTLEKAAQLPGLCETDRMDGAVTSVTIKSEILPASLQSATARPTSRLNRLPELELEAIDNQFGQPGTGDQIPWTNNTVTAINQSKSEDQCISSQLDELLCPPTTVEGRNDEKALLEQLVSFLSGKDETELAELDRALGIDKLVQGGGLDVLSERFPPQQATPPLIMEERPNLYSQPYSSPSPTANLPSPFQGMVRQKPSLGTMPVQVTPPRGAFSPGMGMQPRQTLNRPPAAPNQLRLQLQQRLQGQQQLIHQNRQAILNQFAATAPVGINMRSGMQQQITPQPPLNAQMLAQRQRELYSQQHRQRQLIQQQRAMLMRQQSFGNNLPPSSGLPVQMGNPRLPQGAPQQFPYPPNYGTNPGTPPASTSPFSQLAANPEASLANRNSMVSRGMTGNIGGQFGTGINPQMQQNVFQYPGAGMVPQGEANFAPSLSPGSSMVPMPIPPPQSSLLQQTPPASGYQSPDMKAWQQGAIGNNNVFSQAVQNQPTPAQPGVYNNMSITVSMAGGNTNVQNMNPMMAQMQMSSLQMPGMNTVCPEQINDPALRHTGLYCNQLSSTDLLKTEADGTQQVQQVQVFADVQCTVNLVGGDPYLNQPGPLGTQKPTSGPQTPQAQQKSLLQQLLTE
Sequence of Peroxisome proliferator-activated receptor gamma/Nuclear receptor coactivator 2 (P37231 whole entry): as the sequence (P37231 whole entry) above
Sequence of Peroxisome proliferator-activated receptor gamma/Nuclear receptor coactivator 2 (Q15596 whole entry, further chain): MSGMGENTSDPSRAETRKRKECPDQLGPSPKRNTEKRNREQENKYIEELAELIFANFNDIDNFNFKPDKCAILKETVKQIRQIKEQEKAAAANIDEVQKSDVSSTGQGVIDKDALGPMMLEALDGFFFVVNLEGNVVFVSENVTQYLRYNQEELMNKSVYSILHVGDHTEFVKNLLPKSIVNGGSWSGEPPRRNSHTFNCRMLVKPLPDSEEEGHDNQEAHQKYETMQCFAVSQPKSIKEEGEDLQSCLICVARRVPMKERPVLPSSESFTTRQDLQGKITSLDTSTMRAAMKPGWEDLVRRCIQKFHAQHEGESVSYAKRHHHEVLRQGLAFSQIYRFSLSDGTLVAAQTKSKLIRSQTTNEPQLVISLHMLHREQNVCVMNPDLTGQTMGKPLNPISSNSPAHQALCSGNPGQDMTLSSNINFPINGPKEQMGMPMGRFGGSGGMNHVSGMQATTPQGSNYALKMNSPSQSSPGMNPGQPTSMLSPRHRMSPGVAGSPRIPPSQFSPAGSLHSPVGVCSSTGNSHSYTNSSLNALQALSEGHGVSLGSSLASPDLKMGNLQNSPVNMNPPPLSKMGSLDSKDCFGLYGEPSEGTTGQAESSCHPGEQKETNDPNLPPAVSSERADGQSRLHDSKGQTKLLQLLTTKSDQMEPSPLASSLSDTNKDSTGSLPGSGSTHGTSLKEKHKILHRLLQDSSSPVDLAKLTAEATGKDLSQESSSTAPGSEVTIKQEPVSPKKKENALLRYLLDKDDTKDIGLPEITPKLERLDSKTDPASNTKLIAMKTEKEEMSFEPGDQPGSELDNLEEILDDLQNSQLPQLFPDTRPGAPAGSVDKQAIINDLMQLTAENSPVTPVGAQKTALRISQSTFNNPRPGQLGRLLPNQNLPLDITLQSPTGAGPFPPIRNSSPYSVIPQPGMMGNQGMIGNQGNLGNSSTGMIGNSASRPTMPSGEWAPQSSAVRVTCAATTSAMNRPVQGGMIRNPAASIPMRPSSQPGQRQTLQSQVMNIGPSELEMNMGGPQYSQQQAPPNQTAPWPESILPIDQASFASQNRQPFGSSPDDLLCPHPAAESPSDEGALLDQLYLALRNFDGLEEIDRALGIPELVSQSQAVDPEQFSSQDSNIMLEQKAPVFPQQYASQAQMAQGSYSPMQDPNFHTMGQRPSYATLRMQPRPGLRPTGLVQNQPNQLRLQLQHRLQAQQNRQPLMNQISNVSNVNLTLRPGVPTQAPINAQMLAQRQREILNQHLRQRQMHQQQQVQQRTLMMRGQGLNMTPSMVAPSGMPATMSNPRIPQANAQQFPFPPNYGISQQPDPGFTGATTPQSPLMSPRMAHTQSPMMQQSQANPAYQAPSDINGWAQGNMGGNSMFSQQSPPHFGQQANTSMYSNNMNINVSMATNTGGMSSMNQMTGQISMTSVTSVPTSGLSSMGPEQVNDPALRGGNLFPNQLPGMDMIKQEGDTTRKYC
Sequence of Beta-galactosidase (Q8VNN2 whole entry): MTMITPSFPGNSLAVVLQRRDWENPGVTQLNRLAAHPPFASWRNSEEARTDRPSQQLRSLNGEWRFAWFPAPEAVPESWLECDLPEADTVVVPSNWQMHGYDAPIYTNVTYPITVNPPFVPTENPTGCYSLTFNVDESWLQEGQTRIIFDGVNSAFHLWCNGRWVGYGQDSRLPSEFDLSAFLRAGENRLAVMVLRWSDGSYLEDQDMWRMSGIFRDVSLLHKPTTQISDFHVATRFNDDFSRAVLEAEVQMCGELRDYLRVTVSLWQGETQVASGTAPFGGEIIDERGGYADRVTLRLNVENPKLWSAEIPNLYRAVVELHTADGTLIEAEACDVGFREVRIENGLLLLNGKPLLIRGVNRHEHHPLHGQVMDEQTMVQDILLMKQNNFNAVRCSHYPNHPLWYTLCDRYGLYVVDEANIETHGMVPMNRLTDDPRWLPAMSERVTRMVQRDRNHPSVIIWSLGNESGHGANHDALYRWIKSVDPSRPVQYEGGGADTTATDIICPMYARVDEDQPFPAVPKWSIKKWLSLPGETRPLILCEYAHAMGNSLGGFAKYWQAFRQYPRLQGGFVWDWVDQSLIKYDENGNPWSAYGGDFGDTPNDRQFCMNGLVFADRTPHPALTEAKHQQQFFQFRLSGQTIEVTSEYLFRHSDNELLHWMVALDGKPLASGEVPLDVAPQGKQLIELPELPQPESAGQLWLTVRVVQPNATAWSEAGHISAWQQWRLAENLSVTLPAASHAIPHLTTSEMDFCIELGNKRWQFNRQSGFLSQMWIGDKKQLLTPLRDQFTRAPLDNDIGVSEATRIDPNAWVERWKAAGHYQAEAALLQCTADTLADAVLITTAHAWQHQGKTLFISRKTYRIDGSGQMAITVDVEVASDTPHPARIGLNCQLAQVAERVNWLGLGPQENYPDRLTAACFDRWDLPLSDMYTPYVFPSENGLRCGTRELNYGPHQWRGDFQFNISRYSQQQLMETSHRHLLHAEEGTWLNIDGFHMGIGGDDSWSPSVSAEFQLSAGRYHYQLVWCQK

## CCOC(=O)C1CCCN(S(=O)(=O)c2cc(Br)cc3c2N(C(=O)C2CC2)CC3)C1 (stereo not drawn)
[1]
  EC50: > 79.4 µM (not active)
[2]
  EC50: > 79.4 µM (not active)
[3]
  EC50: > 79.4 µM (not active)

## CCOC(=O)c1c(NC(=O)CSc2nnc(C)c(=O)[nH]2)sc2c1CCCC2
[4]
  IC50: 62.1 µM (active)
[5]
  IC50: 9.34 µM (active)

## COc1ccc([C@H]2CC(=O)C=C(c3ccc(OC)cc3OC)C2)cc1
[6]
  IC50: > 80 µM (inactive)

## CCOC(=O)c1ccccc1NC(=O)c1cn(-c2ccc(C)c(C)c2)c(=O)c2ccccc12
[1]
  EC50: > 79.4 µM (not active)
[2]
  EC50: > 79.4 µM (not active)
[3]
  EC50: > 79.4 µM (not active)

## CCCCCCCOc1ccc(OC(=O)c2ccncc2)cc1
[6]
  IC50: > 80 µM (inactive)

## Cc1ccccc1C(=O)NNC(=S)NC(=O)c1cccs1
[7]
  EC50: 5.96 µM (active)
[8]
  EC50: > 150 µM (not active)
[9]
  CC50: > 25 µM (active)
[10]
  EC50: 3.53 µM (active)
[11]
  EC50: 18.2 µM (active)

## Cc1cc(C)c(C(=O)CSc2nnc(-c3ccccc3Br)o2)cc1C
[1]
  EC50: 69.8 µM (not active)
[2]
  EC50: 51.9 µM (not active)
[3]
  EC50: 32.6 µM (not active)

## CC(=O)N1CCc2cc(Br)cc(S(=O)(=O)NCCCN(C)Cc3ccccc3)c21
[7]
  EC50: 0.149 µM (active)

## O=C(c1cc(COc2ccc(F)cc2Cl)on1)N1CCCC(OCc2cccnc2)C1 (stereo not drawn)
[1]
  EC50: > 79.4 µM (not active)
[2]
  EC50: > 79.4 µM (not active)
[3]
  EC50: > 79.4 µM (not active)

## CCOC(=O)c1cnc(Nc2nc3ccccc3o2)nc1CSC(=S)N1CCCCC1
[12]
  IC50: 2.4 µM (active)
[13]
  EC50: > 120 µM (not active)
[14]
  EC50: > 60 µM (not active)
[15]
  EC50: 7.71 µM (active)
[16]
  CC50: 9.21 µM (active)
[17]
  CC50: > 40 µM (active)

## CC1Cc2ccccc2N1C(=S)NC(=O)c1cccc(Br)c1 (stereo not drawn)
[18]
  IC50: > 66.6 µM (inactive)

## COc1ccc(-c2cc(C(F)F)n3ncc(C(=O)N4CCCc5ccccc54)c3n2)cc1
[1]
  EC50: > 79.4 µM (not active)
[2]
  EC50: > 79.4 µM (not active)
[3]
  EC50: > 79.4 µM (not active)

## Clc1cccc(OCCN2CCN(CCOc3cccc(Cl)c3)CC2)c1
[12]
  IC50: 23.9 µM (active)
[16]
  CC50: > 20 µM (active)
[17]
  CC50: 31.3 µM (active)

## Cc1cc(CSC(=N)N)c(CSC(=N)N)cc1C
[7]
  EC50: 2.11 µM (active)
[19]
  EC50: > 50 µM (active)

## CCOC(=O)C1(Cc2cccc(F)c2)CCN(Cc2cnc(C)s2)CC1
[7]
  EC50: 0.944 µM (active)

## C/C(=N\NC(=S)NCCc1ccccc1)c1ccc(Cl)cc1Cl
[8]
  EC50: > 150 µM (inconclusive)
[18]
  IC50: > 66.6 µM (inactive)
[10]
  EC50: 4.66 µM (active)
[11]
  EC50: 21.2 µM (active)

## O=C(CNC(=O)C(c1ccccc1)c1ccccc1)N/N=C/c1cccnc1
[20]
  IC50: 5.72 µM (not active)
